Reference: patent US20130109682A1, “CYCLIC ETHER COMPOUNDS USEFUL AS KINASE INHIBITORS” (NOVARTIS AG, priority 2010, published 2013)

Experiments:
PIM1 = PIM1 (Homo sapiens, UniProt P11309); test: KinaseGlo Pim1 ATP depletion assay; format: biochemical
Method in brief: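 2.5 nM PIM1 preincubated 15 min with compound and 40 μM BAD peptide in 50 mM HEPES pH 7.5, 5 mM MgCl2, 1 mM DTT, 0.05% BSA, 2.5% DMSO. The reaction was started with 20 μM ATP (final) and run to about 50% ATP depletion. Remaining ATP read by KinaseGlo Plus luminescence to give IC50.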

PIM2 = PIM2 (Homo sapiens, UniProt Q9P1W9); test: KinaseGlo Pim2 ATP depletion assay; format: biochemical
Chain of PIM2 (Q9P1W9 whole entry): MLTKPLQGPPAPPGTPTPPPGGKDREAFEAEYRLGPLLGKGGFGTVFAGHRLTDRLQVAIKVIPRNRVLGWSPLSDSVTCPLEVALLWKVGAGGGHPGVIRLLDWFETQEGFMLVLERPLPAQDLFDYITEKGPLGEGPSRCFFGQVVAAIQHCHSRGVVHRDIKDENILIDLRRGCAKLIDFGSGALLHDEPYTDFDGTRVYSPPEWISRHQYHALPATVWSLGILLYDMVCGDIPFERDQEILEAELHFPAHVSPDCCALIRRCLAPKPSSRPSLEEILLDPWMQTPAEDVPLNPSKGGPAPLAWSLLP
Method in brief: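 Luminescent ATP-depletion read-out of PIM2 phosphorylating BAD peptide (RSRHSSYPAGT-OH). Final conditions: 5 nM PIM2, 4 μM ATP, 10 μM peptide, 2.5% DMSO in 50 mM HEPES pH 7.5, 5 mM MgCl2, 1 mM DTT, 0.05% BSA. Enzyme–peptide preincubated 15 min with compound; reaction run to ~50% ATP depletion.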

PIM3 = PIM3 (Homo sapiens, UniProt Q86V86); test: KinaseGlo Pim3 ATP depletion assay; format: biochemical
Method in brief: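 Kinase was preincubated 15 min with BAD peptide in HEPES pH 7.5/MgCl2/DTT/BSA before ATP was added. Final concentrations were 40 μM ATP, 100 μM BAD peptide and 2.5% DMSO, with 5 nM enzyme. The reaction ran to ~50% ATP depletion and remaining ATP was read by KinaseGlo Plus luminescence.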

GSK3β = GSK3β (Homo sapiens, UniProt P49841); test: GSK3β ATP depletion assay; format: biochemical; conditions: read-out: GSK3b IC50
Chain of GSK3β (P49841 whole entry, species assumed): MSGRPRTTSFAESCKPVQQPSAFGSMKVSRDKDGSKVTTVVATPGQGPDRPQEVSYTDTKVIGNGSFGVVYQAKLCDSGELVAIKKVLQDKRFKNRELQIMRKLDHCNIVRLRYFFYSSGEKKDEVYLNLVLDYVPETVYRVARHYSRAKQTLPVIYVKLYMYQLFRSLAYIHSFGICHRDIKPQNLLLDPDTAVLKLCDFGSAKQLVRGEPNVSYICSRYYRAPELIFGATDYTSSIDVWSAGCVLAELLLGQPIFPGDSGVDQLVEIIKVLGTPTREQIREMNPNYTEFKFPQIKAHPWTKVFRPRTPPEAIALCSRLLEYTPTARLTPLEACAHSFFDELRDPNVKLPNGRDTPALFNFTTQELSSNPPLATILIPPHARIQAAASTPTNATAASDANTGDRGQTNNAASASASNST
Method in brief: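 Human GSK3β (5 nM) preincubated 15 min with 10 μM biotinylated phospho-CREB peptide in pH 7.5 Tris buffer (15 mM MgCl2, 1 mM DTT, 0.1% BSA, 2.5% DMSO). Reaction started with 2 μM ATP and run to about 50% ATP depletion. Remaining ATP measured by KinaseGlo luminescence.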

[1] = tested on: KMS11 (human myeloma cell line); test: Cell proliferation assay (CellTiter-Glo), KMS11; format: cell-based; conditions: KMS11-Luc cells
Method in brief: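 KMS11 cells in IMDM with 10% FBS and sodium pyruvate, seeded at 2000 cells/well on assay day. Compound added at 2× to equal volume of cells, incubated 3 days at 37° C. Viability read by CellTiter-Glo luminescence; EC50 derived.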

hERG = molecular target: T1, hERG (Homo sapiens, UniProt Q12809); test: hERG binding assay ([3H] dofetilide displacement); conditions: dofetilide displacement; read-out: HERGdof IC50
T1 construct: host or cells: crude membrane suspension
T1 sequence (Q12809 whole entry): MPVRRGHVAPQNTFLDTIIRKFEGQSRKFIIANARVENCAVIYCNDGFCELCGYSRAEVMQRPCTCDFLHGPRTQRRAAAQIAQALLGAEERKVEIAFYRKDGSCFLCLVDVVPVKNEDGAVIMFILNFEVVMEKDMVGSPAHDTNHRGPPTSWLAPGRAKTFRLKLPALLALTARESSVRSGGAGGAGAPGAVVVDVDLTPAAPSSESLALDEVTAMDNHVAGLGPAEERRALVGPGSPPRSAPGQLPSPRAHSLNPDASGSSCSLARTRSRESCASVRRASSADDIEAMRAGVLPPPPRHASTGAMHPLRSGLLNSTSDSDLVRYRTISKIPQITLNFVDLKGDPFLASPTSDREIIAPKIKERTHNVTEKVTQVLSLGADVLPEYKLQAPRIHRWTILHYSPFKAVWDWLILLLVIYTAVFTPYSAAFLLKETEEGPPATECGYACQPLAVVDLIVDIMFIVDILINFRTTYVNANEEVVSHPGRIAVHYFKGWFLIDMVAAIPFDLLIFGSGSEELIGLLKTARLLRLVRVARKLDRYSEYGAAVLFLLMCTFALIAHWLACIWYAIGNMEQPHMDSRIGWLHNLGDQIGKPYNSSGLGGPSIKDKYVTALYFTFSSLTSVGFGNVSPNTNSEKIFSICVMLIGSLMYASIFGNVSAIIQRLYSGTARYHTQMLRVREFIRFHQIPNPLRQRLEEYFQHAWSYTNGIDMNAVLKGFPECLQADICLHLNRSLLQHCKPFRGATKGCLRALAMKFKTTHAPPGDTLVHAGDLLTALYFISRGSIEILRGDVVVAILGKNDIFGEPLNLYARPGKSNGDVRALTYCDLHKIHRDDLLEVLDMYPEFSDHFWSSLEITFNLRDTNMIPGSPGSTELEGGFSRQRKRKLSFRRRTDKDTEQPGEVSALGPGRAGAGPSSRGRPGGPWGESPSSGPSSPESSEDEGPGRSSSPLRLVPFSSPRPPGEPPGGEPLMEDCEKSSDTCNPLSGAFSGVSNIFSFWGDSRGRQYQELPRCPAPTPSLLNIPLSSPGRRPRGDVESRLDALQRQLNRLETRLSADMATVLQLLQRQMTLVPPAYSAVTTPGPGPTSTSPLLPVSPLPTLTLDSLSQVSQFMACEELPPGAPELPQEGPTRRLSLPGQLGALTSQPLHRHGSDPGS
Method: Compounds of the invention were pipetted into each well of pre-wet 96-well Millipore GF/C filter plates (#MSFCN6B50): 119 μl assay buffer, 1 μl test compound in 100% DMSO (or 100% DMSO only for total binding), 40 μl [3H] dofetilide (12.5 nM, final concentration 2.5 nM; Novartis radioisotope laboratory, East Hanover, N.J., USA, specific activity 15-45 Ci/mmol); 40 μl crude membrane suspension (ca. 15 μg protein). The final concentration of DMSO during the incubation was 0.5%. Incubations were performed at room temperature for 90 min. Non-specific binding (NSB) was defined as the binding remaining in the presence of 25 μM terfenadine (Sigma T9652). The incubations were terminated by rapid filtration on a Millipore filtration manifold, followed by three washes of 200 μA ice-cold assay buffer. The plates were left to dry overnight before adding 40 μA scintillant (MicroScint-20). The plates were then sealed (Sealing Tape SI, Nunc 236366) and read in a Wallac MicroBeta Trilux beta-counter for 1.5 min per well. Compounds were tested as 9-concentration response curves in duplicate, ranging from 30 μM to 3 nM in 1:3 dilution steps. Dilution curves were prepared in 100% DMSO. The reference compound (terfenadine) was tested as an eight-concentration response curve, ranging from 10 μM to 0.6 nM in 1:4 dilution steps.

Chain of PIM1 (P11309 whole entry): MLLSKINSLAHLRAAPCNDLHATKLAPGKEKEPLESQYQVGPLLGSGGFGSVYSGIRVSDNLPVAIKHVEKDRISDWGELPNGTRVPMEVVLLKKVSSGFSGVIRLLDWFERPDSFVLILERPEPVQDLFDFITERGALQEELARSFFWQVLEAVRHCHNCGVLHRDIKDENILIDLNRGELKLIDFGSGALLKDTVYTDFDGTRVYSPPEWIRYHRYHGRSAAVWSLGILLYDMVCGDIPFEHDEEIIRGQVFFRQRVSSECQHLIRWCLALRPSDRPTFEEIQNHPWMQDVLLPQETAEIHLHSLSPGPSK

Compound: CC1C(c2ccncc2NC(=O)c2ccc(F)c(-c3c(F)cccc3F)n2)OC(C)[C@@H](O)C1O (stereo in doubt) [Example 64, 6-(2,6-difluorophenyl)-N-(4-((2S,3R,4S,5S,6S)-4,5-dihydroxy-3,6-dimethyltetrahydro-2H-pyran-2-yl)pyridin-3-yl)-5-fluoropicolinamide]
- IC50 (PIM1): 1 nM
- IC50 (PIM2): 16 nM
- IC50 (PIM3): 2 nM
- IC50 (GSK3β): 549 nM
- EC50 ([1]; Homo sapiens, KMS-11): 800 nM
- IC50 (hERG): > 30000 nM

Compound: CC1C(c2ccncc2NC(=O)c2ccc(F)c(-c3c(F)cccc3F)n2)OC(C)[C@H](O)C1O (stereo in doubt) [Example 65, 6-(2,6-difluorophenyl)-N-(4-((2R,3S,4R,5R,6R)-4,5-dihydroxy-3,6-dimethyltetrahydro-2H-pyran-2-yl)pyridin-3-yl)-5-fluoropicolinamide]
- IC50 (PIM1): 1 nM
- IC50 (PIM2): 46 nM
- IC50 (PIM3): 3 nM
- IC50 (GSK3β): 51 nM
- EC50 ([1]; Homo sapiens, KMS-11): 8300 nM
- IC50 (hERG): > 30000 nM

Compound: C[C@@H]1O[C@H](c2ccncc2NC(=O)c2ccc(F)c(-c3c(F)cccc3F)n2)[C@@H](F)[C@H](O)[C@@]1(C)O (stereo in doubt) [Example 71, 6-(2,6-difluorophenyl)-5-fluoro-N-(4-((2R,3S,4R,5R,6S)-3-fluoro-4,5-dihydroxy-5,6-dimethyltetrahydro-2H-pyran-2-yl)pyridin-3-yl)picolinamide]
- IC50 (PIM1): 1 nM
- IC50 (PIM2): 52 nM
- IC50 (PIM3): 6 nM
- IC50 (GSK3β): 1480 nM
- EC50 ([1]; Homo sapiens, KMS-11): 6400 nM
- IC50 (hERG): > 30000 nM

Compound: CC[C@]1(O)[C@H](C)O[C@H](c2ccncc2NC(=O)c2ccc(F)c(-c3c(F)cccc3F)n2)C[C@@H]1O (stereo in doubt) [Example 76, 6-(2,6-difluorophenyl)-N-(4-((2S,4S,5R,6S)-5-ethyl-4,5-dihydroxy-6-methyltetrahydro-2H-pyran-2-yl)pyridin-3-yl)-5-fluoropicolinamide]
- IC50 (PIM1): 1 nM
- IC50 (PIM2): 2 nM
- IC50 (PIM3): 1 nM
- IC50 (GSK3β): 100 nM
- EC50 ([1]; Homo sapiens, KMS-11): 200 nM
- IC50 (hERG): > 30000 nM

Compound: C[C@@H]1O[C@H](c2ccncc2NC(=O)c2ccc(F)c(-c3c(F)cccc3F)n2)C[C@H](O)[C@@]1(C)O (stereo in doubt) [Example 112, 6-(2,6-difluorophenyl)-N-(4-((2S,4S,5R,6S)-4,5-dihydroxy-5,6-dimethyltetrahydro-2H-pyran-2-yl)pyridin-3-yl)-5-fluoropicolinamide]
- IC50 (PIM1): 1 nM
- IC50 (PIM2): 3 nM
- IC50 (PIM3): 2 nM
- IC50 (GSK3β): 163 nM
- EC50 ([1]; Homo sapiens, KMS-11): 1200 nM
- IC50 (hERG): > 30000 nM

Compound: C[C@H]1C[C@@H](O)C[C@@H](c2ccncc2NC(=O)c2csc(-c3c(F)cccc3F)n2)O1 (stereo in doubt) [Example 127, 2-(2,6-difluorophenyl)-N-(4-((2S,4R,6S)-4-hydroxy-6-methyltetrahydro-2H-pyran-2-yl)pyridin-3-yl)thiazole-4-carboxamide]
- IC50 (PIM1): 1 nM
- IC50 (PIM2): 324 nM
- IC50 (PIM3): 19 nM
- IC50 (GSK3β): 25 nM
- EC50 ([1]; Homo sapiens, KMS-11): 9600 nM
- IC50 (hERG): > 30000 nM

Compound: C[C@H]1C[C@@H](O)C[C@@H](c2ccncc2NC(=O)c2ccc(F)c(-c3c(F)cccc3F)n2)O1 (stereo in doubt) [Example 128, 6-(2,6-difluorophenyl)-5-fluoro-N-(4-((2S,4R,6S)-4-hydroxy-6-methyltetrahydro-2H-pyran-2-yl)pyridin-3-yl)picolinamide]
- IC50 (PIM1): 1 nM
- IC50 (PIM2): 28 nM
- IC50 (PIM3): 6 nM
- IC50 (GSK3β): 276 nM
- EC50 ([1]; Homo sapiens, KMS-11): 9100 nM
- IC50 (hERG): > 30000 nM

Compound: CC[C@]1(O)[C@H](O)C[C@H](c2ccncc2NC(=O)c2nc(-c3c(F)cccc3F)ncc2N)O[C@@H]1C [Example 16, 5-amino-2-(2,6-difluorophenyl)-N-(4-((2R,4R,5S,6R)-5-ethyl-4,5-dihydroxy-6-methyltetrahydro-2H-pyran-2-yl)pyridin-3-yl)pyrimidine-4-carboxamide]
- IC50 (PIM1): 1 nM
- IC50 (PIM2): 3 nM
- IC50 (PIM3): 2 nM
- IC50 (GSK3β): 101 nM
- EC50 [1]: 1940 nM
- IC50 (hERG): > 30000 nM

Compound: CC[C@]1(O)[C@H](O)C[C@H](c2ccncc2NC(=O)c2nc(-c3c(F)cccc3F)c(F)cc2N)O[C@@H]1C [Example 27, 3-amino-6-(2,6-difluorophenyl)-N-(4-((2R,4R,5S,6R)-5-ethyl-4,5-dihydroxy-6-methyltetrahydro-2H-pyran-2-yl)pyridin-3-yl)-5-fluoropicolinamide]
- IC50 (PIM1): 1 nM
- IC50 (PIM2): 1 nM
- IC50 (PIM3): 1 nM
- IC50 (GSK3β): 250 nM
- IC50 (hERG): > 30000 nM

Compound: [2H][C@@H]1[C@@H](O)[C@H](O)[C@@H](CC)O[C@@]1([2H])c1ccncc1NC(=O)c1ccc(F)c(-c2c(F)cccc2F)n1 [Example 54, 6-(2,6-difluorophenyl)-N-(4-((2R,4R,5S,6R)-6-ethyl-4,5-dihydroxy-2,3-didueterotetrahydro-2H-pyran-2-yl)pyridin-3-yl)-5-fluoropicolinamide]
- IC50 (PIM1): 1 nM
- IC50 (PIM2): 3 nM
- IC50 (PIM3): 2 nM
- IC50 (GSK3β): 131 nM
- EC50 ([1]; Homo sapiens, KMS-11): 2100 nM
- IC50 (hERG): > 30000 nM

Compound: O=C(Nc1cnccc1[C@H]1C[C@@H](O)[C@H](O)[C@@H](CCl)O1)c1ccc(F)c(-c2c(F)cccc2F)n1 [Example 56, N-(4-((2R,4R,5S,6S)-6-(chloromethyl)-4,5-dihydroxytetrahydro-2H-pyran-2-yl)pyridin-3-yl)-6-(2,6-difluorophenyl)-5-fluoropicolinamide]
- IC50 (PIM1): 1 nM
- IC50 (PIM2): 3 nM
- IC50 (PIM3): 2 nM
- IC50 (GSK3β): 73 nM
- EC50 ([1]; Homo sapiens, KMS-11): 8300 nM
- IC50 (hERG): > 30000 nM

Compound: O=C(Nc1cnccc1[C@@H]1C[C@H](O)CC2(CC2)O1)c1ccc(F)c(-c2c(F)cccc2F)n1 [Example 60, 6-(2,6-difluorophenyl)-5-fluoro-N-(4-((5S,7S)-7-hydroxy-4-oxaspiro[2.5]octan-5-yl)pyridin-3-yl)picolinamide]
- IC50 (PIM2): 28 nM
- IC50 (GSK3β): 92 nM
- EC50 ([1]; Homo sapiens, KMS-11): > 10000 nM
- IC50 (hERG): > 30000 nM

Compound: CC[C@@]1(O)[C@H](O)C[C@H](c2ccncc2NC(=O)c2ccc(F)c(-c3c(F)cccc3F)n2)O[C@@H]1C [Example 74, 6-(2,6-difluorophenyl)-N-(4-((2R,4R,5R,6R)-5-ethyl-4,5-dihydroxy-6-methyltetrahydro-2H-pyran-2-yl)pyridin-3-yl)-5-fluoropicolinamide]
- IC50 (PIM1): 1 nM
- IC50 (PIM2): 11 nM
- IC50 (PIM3): 5 nM
- IC50 (GSK3β): 316 nM
- EC50 ([1]; Homo sapiens, KMS-11): 3600 nM
- IC50 (hERG): > 30000 nM

Compound: C[C@H]1O[C@@H](c2ccncc2NC(=O)c2cncc(-c3ccccc3)n2)C[C@@H](O)[C@]1(C)O [Example 85, N-(4-((2R,4R,5S,6R)-4,5-dihydroxy-5,6-dimethyltetrahydro-2H-pyran-2-yl)pyridin-3-yl)-6-phenylpyrazine-2-carboxamide]
- IC50 (PIM1): 221 nM
- IC50 (PIM2): 20600 nM
- IC50 (PIM3): 564 nM
- IC50 (GSK3β): 257 nM
- EC50 ([1]; Homo sapiens, KMS-11): > 10000 nM
- IC50 (hERG): > 30000 nM

Compound: C[C@@H]1O[C@H](c2ccncc2NC(=O)c2cncc(-c3ccccc3)n2)C[C@H](O)[C@@]1(C)O [Example 87, N-(4-((2S,4S,5R,6S)-4,5-dihydroxy-5,6-dimethyltetrahydro-2H-pyran-2-yl)pyridin-3-yl)-6-phenylpyrazine-2-carboxamide]
- IC50 (PIM1): 937 nM
- IC50 (PIM2): > 25000 nM
- IC50 (PIM3): 2670 nM
- IC50 (GSK3β): 809 nM
- EC50 ([1]; Homo sapiens, KMS-11): > 10000 nM
- IC50 (hERG): > 30000 nM
